These results are taken from patent publication US20180051017A1, “AGENT FOR TREATMENT OF SCHIZOPHRENIA” (Sumitomo Dainippon Pharma Co., Ltd., priority 2002, published 2018).

Where a name gives a salt, the structure may show the parent alone.

The subject of this data set is patients with schizophrenia in the acute exacerbation phase. The data set is described as follows: First stage phase II clinical trial: extrapyramidal symptom rating scales (AIMS, BAS, SAS). Format: in vivo, human. To be noted: for SAS (parkinsonism) score change, Average (SD) / BAS Global score (akathisia) change, Average (SD) / AIMS (dyskinesia) score change, Average (SD): n = 44-47. Here is the method:
According to the procedures as shown in Table 1 as described below, the placebo-controlled double blind experiment was done on 149 patients with schizophrenia in the acute exacerbation phase at 15 facilities in USA. The efficacy and safeness were studied when SM-13496 at a dose of 40 mg or 120 mg, or a placebo was orally administered once a day for 6 weeks after placebo washout.
As is shown in Table 7, among the adverse events, the main side effects, a relationship of which to the SM-13496 cannot be denied, was suppression, nausea, akathisia, free-floating vertigo (excluding rotatory vertigo), sleepiness, headache. The occurrence of dystonic reaction was low (less than 4%) in the SM-13496-treated groups.

With `O=C1[C@@H]2[C@@H]3CC[C@@H](C3)[C@@H]2C(=O)N1C[C@@H]1CCCC[C@H]1CN1CCN(c2nsc3ccccc23)CC1` [SM-13496, (1R,2S,3R,4S)-N-[(1R,2R)-2-[4-(1,2-benzoisothiazol-3-yl)-1-piperazinyl-methyl]-1-cyclohexylmethyl]-2,3-bicyclo[2.2.1]heptanedicarboximide hydrochloride], the “SAS (parkinsonism) score change, Average (SD)” value is, setting by setting: (40 mg orally once a day for 6 weeks, p 0.588 vs placebo) 0.1 (1.08); (120 mg orally once a day for 6 weeks, p 0.808 vs placebo) 0.1 (1.11). The “BAS Global score (akathisia) change, Average (SD)” value is 0.1 (1.04) (40 mg orally once a day for 6 weeks, p 0.687 vs placebo) and 0.4 (0.94) (120 mg orally once a day for 6 weeks, p 0.352 vs placebo). Besides, the “AIMS (dyskinesia) score change, Average (SD)” value runs as follows: (40 mg orally once a day for 6 weeks, p 0.978 vs placebo) 0.7 (2.88); (120 mg orally once a day for 6 weeks, p 0.467 vs placebo) 0.2 (2.21). For the same molecule, the “Changes in AIMS, BAS, SAS score between the treated groups” value (40 mg, 120 mg and placebo groups) was “no significant difference”. The “Ratio of the patients requiring benztropine” value (SM-13496-treated groups) is 24%.
